According to US8765695B2, “Use of ginsenoside RG1, its metabolites ginsenoside RH1 and/or PPT” (priority 2007, dated 2014):
Marks after values point to notes of the source that are not given here.

Legend:
[1] = system: sperms of cold stress mice; assay: Quality of sperms in mice in cold stress model by CASA; type: in vivo, Kunming mice; conditions: 14 days
Description: In the test, Kunming mice were used to establish a stress model. The mice were placed in an environment of 4° C. for 8 hours every day, each being kept in a single cage, with fasting and without water, for 14 days, to thereby establish a cold stress model. Ginsenoside Rg1 was administered at two different doses, i.e., 5 mg/kg and 10 mg/kg. Every day, the mice orally took the drug 1 hour before exposure in the cold environment.

T, FSH and LH in serum = assay: Hormones (T, FSH, LH) content in serum of mice, gossypol model, radioimmune assay; type: in vivo
Description: The test was conducted by radioimmune assay, with the use of a kit as purchased from China North Institute of Biological Technology.

NO in testis tissue = assay: NO content in testis tissue of mice, gossypol model (NO kit); type: in vivo
From the text: There was no difference between low-dose group and high-dose group. […] The values were expressed as mean value±SD. **P<0.01 vs. model group, n=10.

PDE5 = PDE5 (Homo sapiens, UniProt O76074); assay: Inhibition effect on PDE5 (cGMP degradation, radioimmune autograph technique); type: biochemical
corpus cavernosum = assay: NO release and cGMP content in corpus cavernosum of Newland white rabbit; type: in vivo
Description: 1.2.1 Influence of Ginsenoside Rg1 on No Release and cGMP Content in Corpus Cavernosum of Newland White Rabbit, as Shown in Table 4
Ginsenoside Rg1 (10 mg/kg) could markedly increase cGMP content in corpus cavernosum as compared with the control group. *P<0.05 vs the control group.

sperms of senile mice = assay: Quality of sperms in senile mice by CASA; type: in vivo, Kunming mice; conditions: senile mice aged 12 months, 5 mg/kg oral once every day, two weeks
Description: In the test, Kunming mice aged 12 months were used. Ginsenoside Rg1 was orally administered at a dose of 5 mg/kg, once every day, for two weeks.
However, the two groups had no difference in terms of the percentage of motility sperms and the percentage of A+B grade. […] The values were expressed as mean value±SD. **P<0.01 vs. the group of senile mice, n=4.

male mice = assay: Test of sexual ethology: bestriding time and mating frequency of male mice with estral female mice; type: in vivo, Kunming mice
Description: Kunming male mice (age 10 weeks, weight body 32-36 g), Kunming female mice (age 10 weeks, weight body 30-34 g), as purchased from Laboratory Animal Center of Chinese Academy of Medical Sciences (with the number of certificate SCXK (Jing) 2005-0004), were placed in a clean grade animal house alternately in light and in darkness (12 h:12 h), while taking water and food freely. The test started after the mice had adapted to the environment in the animal house for 5 days. During the period of adapting to the environment, male mice and female mice were isolated from each other.
In order to correctly reflect the change of male mice in sexual function, we prepared estral female mice by ectomizing their ovaries and inducing them by application of external hormone. After anesthetized with chloral hydrate, female mice were subjected to the steps of ectomizing bilateral ovaries by dorsal approach, ligating uterine tube residue end, and suturing skin, followed by recuperating for one week. The induction by application of hormone was conducted by reference to the literature (Masayoshi Nomura, et al, Physiology & Behavior 91 (2007) 223-228), comprising the steps of subcutaneously injecting estradiol benzoate (30 μg per mouse, is) at 48 h prior to use, and subcutaneously injecting progesterone (500 μg per mouse, is) at 4 h prior to use, to thereby obtain estral female mice.
Estral female mice were put in a ratio of 2:1 to male mice inside a mating box in which male mice were placed. They were trained for consecutive 5 days, 12 min each day. When the mating reaction of male mice became stable, the mice were grouped with the consideration that the bestriding time in each group of mice was substantially the same, while discarding the mice that had relatively weak reaction and no reaction.
In darkness, ethological test was carried out in the rearing cage of male mice. Estral female mice and male mice were kept in a ratio of 2:1 inside the same box for 12 min, during which period the bestriding time and mating frequency of the male mice were observed.
All of the values were expressed by using mean value and standard error (M±SEM), the analytic method used was one-way analysis of variance (ANOVA), and the statistic results were expressed by double star method, i.e., *<0.05, **<0.01.

testosterone in serum = assay: Content of testosterone in serum of male mice by radioimmune assay after 20 days of oral administration; type: in vivo
Description: After oral administration of ginsenoside Rg1 for 20 days, the content of testosterone in serum of male mice was tested by radioimmune assay.

[2] = system: sperms in tail of epididymis; assay: Gossypol aspermatogenesis model: quality of sperms from tail of epididymis by CASA; type: in vivo,  male mice; conditions: 14th day
healthy men aged 30-50 = assay: Improving sexual function of men, study in volunteers; type: in vivo, human; conditions: 100-200 mg/d
From the text: The effect of ginsenoside Rg1 on improving sexual function of men had been studied in a few of volunteers (healthy men aged 30-50).

What does the source list for `CC(C)=CCC[C@](C)(O[C@@H]1O[C@H](CO)[C@@H](O)[C@H](O)[C@H]1O)[C@H]1CC[C@]2(C)[C@@H]1[C@H](O)C[C@@H]1[C@@]3(C)CC[C@H](O)C(C)(C)[C@@H]3[C@@H](O[C@@H]3O[C@H](CO)[C@@H](O)[C@H](O)[C@H]3O)C[C@]12C` [Rg1, ginsenoside Rg1]?
A + B grade ([1]; 5 mg/kg oral): 39.26 ± 8.96 %; Motility sperm ([1]; 5 mg/kg oral): 54.47 ± 8.14 %; Sperm count ([1]; 5 mg/kg oral): 438.70 ± 94.19 ×10^6; A + B grade ([1]; 10 mg/kg oral): 32.89 ± 13.42%; Motility sperm ([1]; 10 mg/kg oral): 44.97 ± 12.07%; Sperm count ([1]; 10 mg/kg oral): 377.17 ± 42.93 ×10^6; FSH in serum (T, FSH and LH in serum; 5 mg/kg): 5.7 ± 2.0 ng/mL; LH in serum (T, FSH and LH in serum; 5 mg/kg): 2.9 ± 1.2 ng/mL; T in serum (T, FSH and LH in serum; 5 mg/kg): 0.8 ± 0.3 ng/mL; FSH in serum (T, FSH and LH in serum; 10 mg/kg): 4.3 ± 1.9 ng/mL; LH in serum (T, FSH and LH in serum; 10 mg/kg): 2.1 ± 0.8 ng/mL; T in serum (T, FSH and LH in serum; 10 mg/kg): 1.0 ± 0.5 ng/mL; NO concentration in testis tissue (NO in testis tissue; 5 mg/kg): 16 ± 9 μmol/g protein; NO concentration in testis tissue (NO in testis tissue; 10 mg/kg): 10 ± 7** μmol/g protein; IC50 (PDE5): 4.34 nM; inhibition at 0.0025 µM (PDE5; inhibitor 2.5 nmol/l, read-out: Inhibition rate on PDE5): 46.7%; inhibition at 0.005 µM (PDE5; inhibitor 5.0 nmol/l, read-out: Inhibition rate on PDE5): 40%; inhibition at 0.01 µM (PDE5; inhibitor 10.0 nmol/l, read-out: Inhibition rate on PDE5): 63.4%; inhibition at 0.04 µM (PDE5; inhibitor 40.0 nmol/l, read-out: Inhibition rate on PDE5): 100%; inhibition at 0.08 µM (PDE5; inhibitor 80.0 nmol/l, read-out: Inhibition rate on PDE5): 100%; NO release in corpus cavernosum (corpus cavernosum; 2.5 mg/kg): 27.97 ± 6.90 μmol/g protein; cGMP content in corpus cavernosum (corpus cavernosum; 2.5 mg/kg): 87.40 ± 42.86 pmol/g; NO release in corpus cavernosum (corpus cavernosum; 5.0 mg/kg): 28.43 ± 6.04* μmol/g protein; cGMP content in corpus cavernosum (corpus cavernosum; 5.0 mg/kg): 98.10 ± 48.40 pmol/g; NO release in corpus cavernosum (corpus cavernosum; 10.0 mg/kg): 30.35 ± 6.70* μmol/g protein; cGMP content in corpus cavernosum (corpus cavernosum; 10.0 mg/kg): 102.73 ± 50.80* pmol/g; A + B grade (sperms of senile mice): 18.27 ± 8.37%; Motility sperms (sperms of senile mice): 40 ± 6.56%; Sperm count (sperms of senile mice): 133.23 ± 15.99** ×10^6; bestriding time of mice (male mice; 5 mg/kg, 1st day): 3.1 ± 4.3 min; mating frequency of mice (male mice; 5 mg/kg, 1st day, 12 min observation): 15.4 ± 6.4; bestriding time of mice (male mice; 5 mg/kg, 4th day): 2.9 ± 3.4 min; mating frequency of mice (male mice; 5 mg/kg, 4th day): 18.7 ± 4.2; bestriding time of mice (male mice; 5 mg/kg, 8th day): 3.9 ± 3.1 min; mating frequency of mice (male mice; 5 mg/kg, 8th day): 25.6 ± 5.2; bestriding time of mice (male mice; 5 mg/kg, 12th day): 7.6 ± 4.1 min; mating frequency of mice (male mice; 5 mg/kg, 12th day): 32.8 ± 6.6; bestriding time of mice (male mice; 5 mg/kg, 14th day): 6.9 ± 3.5 min; mating frequency of mice (male mice; 5 mg/kg, 14th day): 29.3 ± 7.0; bestriding time of mice (male mice; 5 mg/kg, 16th day): 8.6 ± 2.8 min; mating frequency of mice (male mice; 5 mg/kg, 16th day): 42.1 ± 10.1; bestriding time of mice (male mice; 5 mg/kg, 18th day): 9.4 ± 3.7* min; mating frequency of mice (male mice; 5 mg/kg, 18th day): 43.7 ± 8.7*; bestriding time of mice (male mice; 5 mg/kg, 20th day): 9.5 ± 3.4* min; mating frequency of mice (male mice; 5 mg/kg, 20th day): 43.3 ± 7.8*; bestriding time of mice (male mice; 10 mg/kg, 1st day): 3.3 ± 2.3 min; mating frequency of mice (male mice; 10 mg/kg, 1st day, 12 min observation): 13.8 ± 3.4; bestriding time of mice (male mice; 10 mg/kg, 4th day): 3.5 ± 3.1 min; mating frequency of mice (male mice; 10 mg/kg, 4th day): 20.1 ± 4.8; bestriding time of mice (male mice; 10 mg/kg, 8th day): 4.2 ± 3.6 min; mating frequency of mice (male mice; 10 mg/kg, 8th day): 28.3 ± 5.6; bestriding time of mice (male mice; 10 mg/kg, 12th day): 8.6 ± 4.3 min; mating frequency of mice (male mice; 10 mg/kg, 12th day): 25.3 ± 7.1; bestriding time of mice (male mice; 10 mg/kg, 14th day): 7.9 ± 3.7 min; mating frequency of mice (male mice; 10 mg/kg, 14th day): 33.3 ± 6.6; bestriding time of mice (male mice; 10 mg/kg, 16th day): 9.2 ± 3.6 min; mating frequency of mice (male mice; 10 mg/kg, 16th day): 37.9 ± 12.7; bestriding time of mice (male mice; 10 mg/kg, 18th day): 9.3 ± 3.6* min; mating frequency of mice (male mice; 10 mg/kg, 18th day): 45.1 ± 10.8*; bestriding time of mice (male mice; 10 mg/kg, 20th day): 9.8 ± 3.8* min; mating frequency of mice (male mice; 10 mg/kg, 20th day): 44.2 ± 9.4*; content of testosterone in serum of mice (testosterone in serum; 2.5 mg/kg oral): 5.11 pmol/mL; content of testosterone in serum of mice (testosterone in serum; 5.0 mg/kg oral): 5.18 pmol/mL; content of testosterone in serum of mice (testosterone in serum; 10.0 mg/kg oral): 7.90* pmol · ml^−1; Number of sperms ([2]; 5 mg/kg every day + gossypol 50 mg/kg every other day): 170 ± 36**^# 10^6 · ml−1; Motility of sperms (A + B) ([2]; 5 mg/kg every day + gossypol): 28 ± 6%; Viability rate of sperms ([2]; 5 mg/kg every day + gossypol): 50 ± 10 %; Number of sperms ([2]; 10 mg/kg every day + gossypol 50 mg/kg every other day): 225 ± 36**^## 10^6 · ml−1; Motility of sperms (A + B) ([2]; 10 mg/kg every day + gossypol): 45 ± 8 %; Viability rate of sperms ([2]; 10 mg/kg every day + gossypol): 61 ± 9 %; side effects in volunteers (healthy men aged 30-50): except for dry mouth, no significant side effects occurred
